Data published in patent US8916570B2 (The United States of America, as represented by the …, priority 2008, dated 2014).

Experiments:
hA1AR = target: T1, hA1AR (Homo sapiens, UniProt P30542); assay: Binding at hA1AR, CHO membranes (Example 7); conditions: read-out: % inhibition hA1
T1 construct: expressed in transfected cells; host or cells: CHO
T1 sequence (P30542 1-326): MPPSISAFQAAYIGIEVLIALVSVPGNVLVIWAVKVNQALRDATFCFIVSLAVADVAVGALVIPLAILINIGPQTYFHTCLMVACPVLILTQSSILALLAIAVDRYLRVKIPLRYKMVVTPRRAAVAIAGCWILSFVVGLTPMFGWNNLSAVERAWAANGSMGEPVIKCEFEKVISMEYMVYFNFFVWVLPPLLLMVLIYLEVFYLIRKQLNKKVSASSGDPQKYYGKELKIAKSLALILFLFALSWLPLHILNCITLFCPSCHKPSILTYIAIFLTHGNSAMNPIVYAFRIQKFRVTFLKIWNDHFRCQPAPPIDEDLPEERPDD
Experimental: (§1) CHO cells stably expressing the recombinant hA1, hA3, and rA3Rs, and HEK-293 cells stably expressing the hA2AAR were cultured in Dulbecco's modified Eagle medium (DMEM) and F12 (1:1) supplemented with 10% fetal bovine serum, 100 units/mL penicillin, 100 μg/mL streptomycin, and 2 μmol/mL glutamine. In addition, 800 μg/mL geneticin was added to the A2A media, while 500 μg/mL hygromycin was added to the A1 and A3 media. After harvesting, cells were homogenized and suspended in PBS. Cells were then centrifuged at 240 g for 5 min, and the pellet was resuspended in 50 mM Tris-HCl buffer (pH 7.5) containing 10 mM MgCl2. The suspension was homogenized and was then ultra-centrifuged at 14,330 g for 30 min at 4° C. […] The protein concentration was measured using the BCA Protein Assay Kit from Pierce Biotechnology, Inc. (Rockford, Ill.).
(§2) Into each tube in the binding assay was added 50 μL of increasing concentrations of the test ligand in Tris-HCl buffer (50 mM, pH 7.5) containing 10 mM MgCl2, 50 μL of the appropriate agonist radioligand, and finally 100 μL of membrane suspension. […] For the A2AAR (20 μg/tube) the radioligand used was [^3H]53 (10 nM). […] Nonspecific binding was determined using a final concentration of 10 μM 51 diluted with the buffer. The mixtures were incubated at 25° C. for 60 min in a shaking water bath. Binding reactions were terminated by filtration through Brandel GF/B filters under a reduced pressure using a M-24 cell harvester (Brandel, Gaithersburg, Md.). Filters were washed three times with 3 mL of 50 mM ice-cold Tris-HCl buffer (pH 7.5). […] Filters for A3AR binding were counted using a Packard COBRA™ II γ-counter. The Ki values were determined using GraphPad Prism for all assays.

hA2AAR = target: T2, hA2AAR (Homo sapiens, UniProt P29274); assay: Binding at hA2AAR, HEK-293 membranes (Example 7); conditions: for inhibition at 10 µM: read-out: % inhibition hA2A; for Ki: read-out: Affinity (Ki, nM) hA2A
T2 construct: expressed in transfected cells
Experimental: After harvesting, cells were homogenized and suspended in PBS.
Nonspecific binding was determined using a final concentration of 10 μM 51 diluted with the buffer.

hA3AR = target: T3, hA3AR (Homo sapiens, UniProt P0DMS8); assay: Binding at hA3AR, CHO membranes (Example 7); conditions: read-out: Affinity (Ki, nM) hA3
T3 construct: expressed in transfected cells; host or cells: CHO
T3 sequence (P0DMS8 1-318): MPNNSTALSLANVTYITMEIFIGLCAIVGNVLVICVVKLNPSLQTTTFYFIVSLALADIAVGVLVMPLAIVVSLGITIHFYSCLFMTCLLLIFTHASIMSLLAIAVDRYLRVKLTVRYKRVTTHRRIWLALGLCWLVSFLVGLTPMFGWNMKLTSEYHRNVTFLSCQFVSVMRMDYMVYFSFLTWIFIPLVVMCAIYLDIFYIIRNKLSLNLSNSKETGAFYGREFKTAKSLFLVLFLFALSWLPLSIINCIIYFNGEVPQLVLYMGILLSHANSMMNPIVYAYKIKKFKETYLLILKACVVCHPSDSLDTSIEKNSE
Experimental: as §1, §2

T2 sequence (P29274 whole entry): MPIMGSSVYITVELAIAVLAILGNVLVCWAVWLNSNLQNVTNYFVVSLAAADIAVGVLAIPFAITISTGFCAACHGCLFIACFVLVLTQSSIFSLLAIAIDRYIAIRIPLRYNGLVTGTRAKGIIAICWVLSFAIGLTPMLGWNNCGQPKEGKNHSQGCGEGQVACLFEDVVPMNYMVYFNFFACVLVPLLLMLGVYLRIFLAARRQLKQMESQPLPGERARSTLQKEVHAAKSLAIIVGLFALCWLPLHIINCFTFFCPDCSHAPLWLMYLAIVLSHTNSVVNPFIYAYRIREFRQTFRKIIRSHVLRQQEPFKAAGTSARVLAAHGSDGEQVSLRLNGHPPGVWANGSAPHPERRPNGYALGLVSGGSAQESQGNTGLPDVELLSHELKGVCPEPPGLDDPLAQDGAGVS

| SMILES | inhibition at 10 µM (hA1AR) [%] | inhibition at 10 µM (hA2AAR) [%] | Ki (hA3AR) [nM] | Ki (hA2AAR) [nM] |
| --- | --- | --- | --- | --- |
| CNC(=O)[C@@]12C[C@@H]1[C@@H](n1cnc3c(NCc4cccc(Cl)c4)nc(C#Cc4ccc5ccc6cccc7ccc4c5c67)nc31)[C@H](O)[C@@H]2O [Compound 336, (1S,2R,3S,4R,5S)-4-(6-(3-Chlorobenzylamino)-2-(pyren-1-ylethynyl)-9H-purin-9-yl)-2,3-dihydroxy-N-methylbicyclo[3.1.0]hexane-1-carboxamide] | 6 | 66 | 68.3 ± 12.5 | – |
| CCc1ccc(C#Cc2nc(NC)c3ncn([C@H]4[C@H](O)[C@H](O)[C@]5(C(=O)NC)C[C@H]45)c3n2)cc1 [Compound 321, (1S,2R,3S,4R,5S)-4-(2-((4-Ethylphenyl)ethynyl)-6-(methylamino)-9H-purin-9-yl)-2,3-dihydroxy-N-methylbicyclo[3.1.0]hexane-1-carboxamide] | 14 | 38 | 3.78 ± 1.16 | – |
| CNC(=O)[C@@]12C[C@@H]1[C@@H](n1cnc3c(NC)nc(C#Cc4ccc(Br)cc4)nc31)[C@H](O)[C@@H]2O [Compound 317, (1S,2R,3S,4R,5S)-4-(2-((4-Bromophenyl)ethynyl)-6-(methylamino)-9H-purin-9-yl)-2,3-dihydroxy-N-methylbicyclo[3.1.0]hexane-1-carboxamide] | 11 | 26 | 0.91 ± 0.06 | – |
| CNC(=O)[C@@]12C[C@@H]1[C@@H](n1cnc3c(NCc4cccc(Cl)c4)nc(C#Cc4cccc(Cl)c4)nc31)[C@H](O)[C@@H]2O [Compound 330, (1S,2R,3S,4R,5S)-4-(6-(3-Chlorobenzylamino)-2-((3-chlorophenyl)ethynyl)-9H-purin-9-yl)-2,3-dihydroxy-N-methylbicyclo[3.1.0]hexane-1-carboxamide] | 0 | – | 1.95 | 1620 |
| CNC(=O)[C@@]12C[C@@H]1[C@@H](n1cnc3c(NCc4cccc(Cl)c4)nc(C#Cc4ccc(F)c(F)c4)nc31)[C@H](O)[C@@H]2O [Compound 331, (1S,2R,3S,4R,5S)-4-(6-(3-Chlorobenzylamino)-2-((3,4-difluorophenyl)ethynyl)-9H-purin-9-yl)-2,3-dihydroxy-N-methylbicyclo[3.1.0]hexane-1-carboxamide] | 3 | 41 | – | – |
| CNC(=O)[C@@]12C[C@@H]1[C@@H](n1cnc3c(NC)nc(C#Cc4cc5ccccc5c5ccccc45)nc31)[C@H](O)[C@@H]2O [Compound 326, (1S,2R,3S,4R,5S)-2,3-Dihydroxy-N-methyl-4-(6-(methylamino)-2-(phenanthren-9-ylethynyl)-9H-purin-9-yl)bicyclo[3.1.0]hexane-1-carboxamide] | 15 | 52 | 3.48 ± 1.36 | – |
| CNC(=O)[C@@]12C[C@@H]1[C@@H](n1cnc3c(NC)nc(C#Cc4ccc(Cl)cc4)nc31)[C@H](O)[C@@H]2O [Compound 316, (1S,2R,3S,4R,5S)-4-(2-((4-Chlorophenyl)ethynyl)-6-(methylamino)-9H-purin-9-yl)-2,3-dihydroxy-N-methylbicyclo[3.1.0]hexane-1-carboxamide] | 13 | 30 | 1.22 ± 0.31 | – |
| CNC(=O)[C@@]12C[C@@H]1[C@@H](n1cnc3c(NC)nc(C#Cc4ccccn4)nc31)[C@H](O)[C@@H]2O [Compound 310, (1S,2R,3S,4R,5S)-2,3-Dihydroxy-N-methyl-4-(6-(methylamino)-2-(pyridin-2-ylethynyl)-9H-purin-9-yl)bicyclo[3.1.0]hexane-1-carboxamide] | 13 | 13 | – | – |
| CNC(=O)[C@@]12C[C@@H]1[C@@H](n1cnc3c(NC)nc(C#Cc4cccc5ccccc45)nc31)[C@H](O)[C@@H]2O [Compound 325, (1S,2R,3S,4R,5S)-2,3-Dihydroxy-N-methyl-4-(6-(methylamino)-2-(naphthalen-1-ylethynyl)-9H-purin-9-yl)bicyclo[3.1.0]hexane-1-carboxamide] | 24 | 34 | 1.67 ± 0.18 | – |
| CNC(=O)[C@@]12C[C@@H]1[C@@H](n1cnc3c(NC)nc(C#Cc4ccc(-c5ccccc5)cc4)nc31)[C@H](O)[C@@H]2O [Compound 324, (1S,2R,3S,4R,5S)-4-(2-(Biphenyl-4-ylethynyl)-6-(methylamino)-9H-purin-9-yl)-2,3-dihydroxy-N-methylbicyclo[3.1.0]hexane-1-carboxamide] | 20 | 29 | 3.1 ± 1.26 | – |
| CNC(=O)[C@@]12C[C@@H]1[C@@H](n1cnc3c(NC)nc(C#Cc4cccc(Cl)c4)nc31)[C@H](O)[C@@H]2O [Compound 315, (1S,2R,3S,4R,5S)-4-(2-((3-Chlorophenyl)ethynyl)-6-(methylamino)-9H-purin-9-yl)-2,3-dihydroxy-N-methylbicyclo[3.1.0]hexane-1-carboxamide] | 11 | – | 1.6 ± 0.6 | 1270 ± 300 |
| CNC(=O)[C@@]12C[C@@H]1[C@@H](n1cnc3c(NC)nc(C#Cc4cccc(F)c4)nc31)[C@H](O)[C@@H]2O [Compound 312, (1S,2R,3S,4R,5S)-4-(2-((3-Fluorophenyl)ethynyl)-6-(methylamino)-9H-purin-9-yl)-2,3-dihydroxy-N-methylbicyclo[3.1.0]hexane-1-carboxamide] | 14 | 10 | 0.97 ± 0.24 | – |
| CNC(=O)[C@@]12C[C@@H]1[C@@H](n1cnc3c(NC)nc(C#Cc4ccccc4F)nc31)[C@H](O)[C@@H]2O [Compound 311, (1S,2R,3S,4R,5S)-4-(2-((2-Fluorophenyl)ethynyl)-6-(methylamino)-9H-purin-9-yl)-2,3-dihydroxy-N-methylbicyclo[3.1.0]hexane-1-carboxamide] | 20 | 17 | 0.97 ± 0.38 | – |
| CNC(=O)[C@@]12C[C@@H]1[C@@H](n1cnc3c(NC)nc(C#Cc4ccc(C(C)(C)C)cc4)nc31)[C@H](O)[C@@H]2O [Compound 322, (1S,2R,3S,4R,5S)-4-(2-((4-tert-Butylphenyl)ethynyl)-6-(methylamino)-9H-purin-9-yl)-2,3-dihydroxy-N-methylbicyclo[3.1.0]hexane-1-carboxamide] | 27 | 7 | 10.1 ± 1.9 | – |
| CNC(=O)[C@@]12C[C@@H]1[C@@H](n1cnc3c(NC)nc(C#Cc4ccc(F)c(F)c4)nc31)[C@H](O)[C@@H]2O [Compound 319, (1S,2R,3S,4R,5S)-4-(2-((3,4-Difluorophenyl)ethynyl)-6-(methylamino)-9H-purin-9-yl)-2,3-dihydroxy-N-methylbicyclo[3.1.0]hexane-1-carboxamide] | 6 | 6 | 1.65 ± 0.08 | – |
| CNC(=O)[C@@]12C[C@@H]1[C@@H](n1cnc3c(NC)nc(C#Cc4cccc(N)c4)nc31)[C@H](O)[C@@H]2O [Compound 318, (1S,2R,3S,4R,5S)-4-(2-((3-Aminophenyl)ethynyl)-6-(methylamino)-9H-purin-9-yl)-2,3-dihydroxy-N-methylbicyclo[3.1.0]hexane-1-carboxamide] | 16 | 19 | 1.07 ± 0.14 | – |
| CNC(=O)[C@@]12C[C@@H]1[C@@H](n1cnc3c(NC)nc(C#Cc4ccc(C(C)=O)cc4)nc31)[C@H](O)[C@@H]2O [Compound 323, (1S,2R,3S,4R,5S)-4-(2-((4-Acetylphenyl)ethynyl)-6-(methylamino)-9H-purin-9-yl)-2,3-dihydroxy-N-methylbicyclo[3.1.0]hexane-1-carboxamide] | 8 | 62 | 2.57 ± 0.78 | – |
| CNC(=O)[C@@]12C[C@@H]1[C@@H](n1cnc3c(NCc4cccc(Cl)c4)nc(C#Cc4cccc(C(=O)O)c4)nc31)[C@H](O)[C@@H]2O [Compound 333, 3-((6-(3-Chlorobenzylamino)-9-((1S,2R,3S,4R,5S)-3,4-dihydroxy-5-(methylcarbamoyl)bicyclo[3.1.0]hexan-2-yl)-9H-purin-2-yl)ethynyl)benzoic acid] | 1 | 38 | 6.75 ± 2.78 | – |
| CNC(=O)[C@@]12C[C@@H]1[C@@H](n1cnc3c(NC)nc(C#Cc4cc(F)cc(F)c4)nc31)[C@H](O)[C@@H]2O [Compound 320, (1S,2R,3S,4R,5S)-4-(2-((3,5-Difluorophenyl)ethynyl)-6-(methylamino)-9H-purin-9-yl)-2,3-dihydroxy-N-methylbicyclo[3.1.0]hexane-1-carboxamide] | 6 | 47 | 1.66 ± 0.36 | – |
| CNC(=O)[C@@]12C[C@@H]1[C@@H](n1cnc3c(NC)nc(C#Cc4ccccc4)nc31)[C@H](O)[C@@H]2O [Compound 309, (1S,2R,3S,4R,5S)-2,3-Dihydroxy-N-methyl-4-(6-(methylamino)-2-(phenylethynyl)-9H-purin-9-yl)bicyclo[3.1.0]hexane-1-carboxamide] | 18 | 14 | – | – |
